For orientation: IC50 means the concentration needed to halve the response being measured.

Like-named read-outs stand apart in the source and are kept apart here.

In one assay the test system is PANC‐1. Nature of the assay: Annexin V apoptosis assay, PANC‐1. To be noted: 1 × IC50. It counts as cell-based. The protocol:
In order to investigate the apoptotic properties of the compounds 1b and 1g, the Annexin V apoptosis assay was performed. Annexins are calcium‐dependent phospholipid binding proteins, which are able to bind to phosphatidylserine (PS). The externalization of PS residues on the outer membrane of apoptotic cells can be detected by Annexin V.
For this assay, cells were seeded in a 96‐well plate at a concentration of 13.5 × 10^3 and 4.5 × 10^3 /well respectively for the 24 and 72 h experiments. The next day cells were treated with compounds 1b and 1g at 1 × IC50 and 4 × IC50 concentrations. The apoptosis assay was performed 24 and 72 h post‐treatment following the BD Pharmingen FITC Annexin V Apoptosis Detection Kit I (BD Biosciences, 556,547). The supernatant was aspirated, and cells were washed with phosphate‐buffered saline (PBS). Cells were consequently treated with binding buffer BBA + Annexin V (1:100) and were incubated in the dark at RT for 10 min. The supernatant was removed, and the cells were washed with BBA (1:10). Cells were then incubated with BBA + PI (1:100) and were immediately read with the spectrophotometer at ex. 485/ em. 535. Two different programs were used to read the Annexin V and the PI absorbance. Lastly, 100 µL of PBS were added to each well before being fixed with TCA. This was followed by the SRB assay to standardize fluorescence data according to cell count. Data were exported into GraphPad Prism 10 for statistical analysis.

For a further assay, the system named is PATU‐T. Briefly: SRB chemosensitivity assay, PATU‐T cells. The format is cell-based. The following applies: read-out: IC50 PATU‐T. The protocol: Three lines of immortalized PDAC cells were selected as representative phenotypes: mesenchymal (PATU‐T), quasimesenchymal (PANC‐1), and an epithelial clone of SUIT 2 cells (SUIT 2.28). Cells were cultured in noncoated T‐75 and T‐25 flasks under adherent conditions, using 1× DMEM (Gibco, 41,966,029) for PATU‐T and RPMI (Gibco, 21,875,034) for SUIT 2.28 and PANC‐1, both supplemented with 10% NBCS and 1% P/S. Additional employed models were the PDAC3 cells, a primary cell culture, the PSCs, which were immortalized healthy pancreatic cells, and the PATU‐T‐GR, which was a gemcitabine resistant model of PATU‐T. PDAC3 and PSCs were cultivated using complete RPMI medium, while PATU‐T‐GR required complete DMEM medium. For seeding, cells were detached with Trypsin‐EDTA (0.05%) (GibcoTM, 25,300–096) and were consequently counted using the Automated Cell Counter (Luna‐II, Westburg). Cells were then plated on 96‐ or 6‐well plates depending on the planned experiment.
The Sulforhodamine B (SRB) chemosensitivity assay was used to measure cytotoxicity and cell proliferation post drug treatment. At day 0, 3–6 × 10^3 cells were seeded in a 96‐well plate, depending on the cell line. At day 1, cells were attached and ready to be treated. For the calculation of the IC50, drug dilutions for the compounds 1b, 1c, 1d, 1e, 1g, 1hr, 1i, 1j, and LDC4297 (MedChemExpress, HY‐12,653) were prepared in dilution trays and eight different concentrations were included. These were added in triplicates to the cells, which were then incubated for […] at 37 °C in 5% CO2. During day 1, the control plate was fixed with 50% Trichloroacetic acid (TCA), as intended to be the baseline plate used for the normalization of the data. 72 h post‐treatment, the cells were fixed with TCA, and placed at 4 °C for about 2 h. The plates were then washed with distillated water and left to dry under the hood with ventilation. Subsequently, plates were stained with 0.4% SRB for 15 min and washed with 1% acetic acid to remove excess stain. Once dried again, the protein‐bound SRB was dissolved in 10 mM TRIS, and the plates were placed on a shaker for 10 min per plate. Lastly, the absorbance was measured at 492 nm with a spectrophotometer (Synergy HT, BioTek). The absorbance data obtained were normalized to the day 1 control, and the percentage of cell growth in relation to the control was calculated using the following formula. (1) %Cell growth=Mean OD treatment−Mean OD day0/Mean OD control−Mean OD day0×100
The percentage of proliferation and their respective standard deviations were used to perform statistical analysis in GraphPad Prism software v 10 (GraphPad Software, San Diego, CA). Data were normalized to the day 0 control and to their own untreated 72 h control. These were transformed into logarithmic data, and log(inhibitor) versus response analysis was performed for obtaining the IC50 values per cell lines. Each experiment was conducted in triplicates.

The target of assay [1] is phosphorylated CDK7 (p‐CDK7) (Homo sapiens, UniProt P50613). Nature of the assay: Phospho‐CDK7 (Thr170) cell‐based ELISA, PDAC3. To be noted: PDAC3, 4 × IC50, ELISA. On the set-up: endogenous in cells; host or cells: PDAC3 primary cells. The protocol:
To detect CDK7 and phospho‐CDK7 levels at Thr170 residue after treatment, an enzyme‐linked immunosorbent assay (Biomatik, Phospho‐CDK7 (Thr170) Colorimetric Cell‐Based ELISA Kit, Cat# EKA51274) was performed according to the manufacturer's protocols. […] The absorbance was read at 450 nm using a microplate reader.
In general terms: An ELISA detects its analyte on a solid surface through an enzyme-linked reagent.

Another assay relates to PATU‐T spheroids. Nature of the assay: PATU‐T 3D spheroids, resazurin viability. The format is cell-based. The following applies: three cell densities, 1 × IC50 and 4 × IC50. The protocol: The modulation of the growth of spheroids was utilized as a method to assess the effect of the novel compounds 1b and 1g in a 3D structure. The PATU‐T cell line was employed to make such a structure. Agarose 1.5% is a solid gel at RT; thus, in order to become a liquid solution, it was heated up into a microwave for about 30 s—1 min, depending on when it starts boiling. Once heated up, the bottle containing the agarose was wrapped in aluminum foil, and it was allowed to maintain the temperature and the liquid state of the agarose. Each well of a flat‐bottom 96‐well plate was coated with 70 µL of agarose. Plates were left to cool down and dried for 1 h at RT. Afterward, 7 × 10^3, 1 × 10^4, and 2 × 10^4 cells/well (200 µL) were seeded in order to identify the optimal amount of cell for the spheroid formation. Finally, the plates were centrifuged at 1200 rpm for 6 min and placed in the incubator for 7 days at 37 °C, 5% CO2. After one week, spheroids were imaged at day 0 h with the inverted routine microscope Nikon Eclipse Ts2 and were consequently treated with compounds 1b and 1g at 4 × IC50 and 1 × IC50. In order to assess the effects of the treatment, images were then taken every 3 days, and medium along with treatment was refreshed at the same interval. […] Cells were then collected, counted, and reseeded in 96‐well plates. […] Absorbance was read at 570 nm.
On the technique in general: Resazurin is reduced to fluorescent resorufin, in cell work by metabolically active cells.

Chain of phosphorylated CDK7 (p‐CDK7) (P50613 2-346 limits assumed): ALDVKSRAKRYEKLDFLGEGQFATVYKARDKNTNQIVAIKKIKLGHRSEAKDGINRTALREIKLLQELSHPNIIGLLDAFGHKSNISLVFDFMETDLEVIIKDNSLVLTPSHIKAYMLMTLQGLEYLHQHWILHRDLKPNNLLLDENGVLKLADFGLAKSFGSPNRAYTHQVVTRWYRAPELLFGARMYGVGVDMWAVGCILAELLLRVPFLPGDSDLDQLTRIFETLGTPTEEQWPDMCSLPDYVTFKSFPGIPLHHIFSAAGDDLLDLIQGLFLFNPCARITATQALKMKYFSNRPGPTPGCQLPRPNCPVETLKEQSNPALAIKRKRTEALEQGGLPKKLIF
Chain of phosphorylated CDK7 (p‐CDK7) (P51946 whole entry partner): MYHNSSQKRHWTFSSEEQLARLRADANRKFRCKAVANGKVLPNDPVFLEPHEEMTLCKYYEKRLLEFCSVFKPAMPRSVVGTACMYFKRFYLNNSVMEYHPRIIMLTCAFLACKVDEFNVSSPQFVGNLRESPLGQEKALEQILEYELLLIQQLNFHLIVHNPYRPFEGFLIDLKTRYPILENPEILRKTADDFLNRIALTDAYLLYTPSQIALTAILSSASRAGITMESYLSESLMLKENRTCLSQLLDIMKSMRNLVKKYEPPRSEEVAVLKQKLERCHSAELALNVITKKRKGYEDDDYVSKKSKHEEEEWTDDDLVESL
Chain of phosphorylated CDK7 (p‐CDK7) (P51948 whole entry partner): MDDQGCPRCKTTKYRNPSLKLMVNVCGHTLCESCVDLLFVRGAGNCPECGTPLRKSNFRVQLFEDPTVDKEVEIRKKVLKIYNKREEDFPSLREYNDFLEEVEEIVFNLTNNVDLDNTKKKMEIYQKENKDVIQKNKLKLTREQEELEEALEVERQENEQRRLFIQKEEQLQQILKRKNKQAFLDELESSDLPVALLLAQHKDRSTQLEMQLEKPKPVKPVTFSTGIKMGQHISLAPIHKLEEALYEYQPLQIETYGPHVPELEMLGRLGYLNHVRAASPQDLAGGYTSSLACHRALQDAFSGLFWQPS

Turning to `Cn1cc(-c2cc3ncnc(N)n3n2)c2cc(Br)ccc21` [Compound 1g, 7‐(5‐Bromo‐1‐methyl‐1H‐indol‐3‐yl)pyrazolo[1,5‐a][1,3,5]triazin‐4‐amine], the apoptotic index result is given as “did not show any significant increase in apoptotic index” in the assay on PANC‐1 (PANC‐1, 24 h) and “slight increase that was not statistically significant” in the assay on PANC‐1 (PANC‐1, 72 h). The IC50 in the assay on PATU‐T (72 h) worked out at 1300 ± 100 nM. Also, the “p‐CDK7 expression vs untreated” value in assay [1] was “decrease in p‐CDK7 expression”. Moreover, in the assay on PATU‐T spheroids, the “cell viability compared to untreated controls (resazurin)” value is on record as “significantly reduced viability”.

Turning to `Nc1ncnc2cc(-c3c[nH]c4ccc(Br)cc34)nn12` [Compound 1b, 7‐(5‐Bromo‐1H‐indol‐3‐yl)pyrazolo[1,5‐a][1,3,5]triazin‐4‐amine], the apoptotic index result was “did not show any significant increase in apoptotic index” in the assay on PANC‐1 (PANC‐1, 24 h) and “significant increase in apoptotic index” in the assay on PANC‐1 (PANC‐1, 72 h). The IC50 in the assay with PATU‐T (SRB, 72 h of treatment, average ± SEM, triplicate) is 1400 ± 200 nM. Further, the “p‐CDK7 expression vs untreated” value in assay [1] is reported as “decrease in p‐CDK7 expression”. Also, in the assay with PATU‐T spheroids, the “cell viability compared to untreated controls (resazurin)” value is “significantly reduced viability”.

For the origin of these results see article PMC12503906, “Novel Pyrazolo [1,5‐a]−1,3,5‐Triazine Derivatives as CDK7 Inhibitors: Synthesis and Biological Insights in Pancreatic Ductal Adenocarcinoma Models” (Chemmedchem, 2025).
